Patent publication US20250325531A1, “TREATMENT OF SYSTOLIC DYSFUNCTION” (MyoKardia, Inc., priority 2024, published 2025)

Test system: patients with stable HFrEF
Assay: Safety and tolerability (TEAEs, serum troponin, ECG, Holter) in MAD cohorts, patients with stable HFrEF
Format: in vivo, human
Experimental: During the study, multiple evaluations were performed that included: serial TTE assessments (11-14 TTEs per patient on Days 1, 2, 3, 4, 7, 9, 10 and 11); PK sampling (PK sample collected concomitantly with every post-randomization echocardiogram); ECGs (on Days 2, 3, 4, 7, 9, 10, 11 and 16); troponin (collected concomitantly with every post-randomization ECG); and safety laboratory assessments. Confined patients underwent continuous telemetry. Holter monitoring was performed in all patients at baseline (Days 1-2) and at the end of double-blind treatment (Days 7-9). Vital signs were collected daily.
Safety and efficacy assessments were conducted by measuring patients' vital signs and laboratory parameters; performing TTE to measure, e.g., systolic ejection time; performing electrocardiograms (e.g., 12-lead ECG), real-time ECG telemetry (e.g., at least 3-lead), and Holter ECG; and measuring levels of troponin (e.g., troponin I and/or troponin T) and 4β-hydroxycholesterol.
Abnormal and/or rising troponin values (as per investigator's judgment and taking into account potential baseline troponin elevation frequently observed in heart failure) led to the patient being clinically evaluated for possible myocardial ischemia. […] The entire clinical context (e.g., signs, symptoms, new ECG changes, new troponin, and CK-MB abnormalities) was evaluated and correlated with any other relevant clinical findings, patient's medical history, and laboratory data to determine the clinical significance of the findings. Troponin results performed on Day 2 of Part 1 (SAD) and Day 10 of Part 2 (MAD) at a local lab were reviewed prior to the patient being discharged the next day.

[1] = Cohort A + C 75 mg BID (n = 15)

Cn1cc(S(=O)(=O)[C@@](C)(F)C2CCN(C(=O)Nc3ccon3)CC2)c(C(F)F)n1 [Compound I, (R)-4-(1-((3-(difluoromethyl)-1-methyl-1H-pyrazol-4-yl)sulfonyl)-1-fluoroethyl)-N-(isoxazol-3-yl) piperidine-1-carboxamide]
Number of patients with any AE leading to death [1]: 0
Number of patients with any TEAE [1]: 6
Number of patients with any TEAE leading to permanent treatment discontinuation [1]: 0
Number of patients with any serious TEAE [1]: 1
TEAE Abdominal discomfort, n patients [1]: 0
TEAE Alanine aminotransferase increased, n patients [1]: 1
TEAE Anemia, n patients [1]: 1
TEAE Application site erosion, n patients [1]: 0
TEAE Arthralgia, n patients [1]: 0
TEAE Arthropod bite, n patients [1]: 0
TEAE Back pain, n patients [1]: 0
TEAE Blood creatine phosphokinase increased, n patients [1]: 0
TEAE Blood creatinine increased, n patients [1]: 0
TEAE Cough, n patients [1]: 1
TEAE Dermatitis contact, n patients [1]: 0
TEAE Dry eye, n patients [1]: 0
TEAE Fatigue, n patients [1]: 2
TEAE Fluid overload, n patients [1]: 0
TEAE Gingival pain, n patients [1]: 0
TEAE Hyperkalemia, n patients [1]: 0
TEAE Infusion site erythema, n patients [1]: 0
TEAE Nasopharyngitis, n patients [1]: 0
TEAE Rash, n patients [1]: 0
TEAE Renal failure, n patients [1]: 0
TEAE Renal impairment, n patients [1]: 0
TEAE Testicular pain, n patients [1]: 0
TEAE Troponin increased, n patients [1]: 1
TEAE Ventricular tachycardia, n patients [1]: 0
Number of patients with any AE leading to death (Cohort B 50 mg BID (n = 9)): 0
Number of patients with any TEAE (Cohort B 50 mg BID (n = 9)): 7
Number of patients with any TEAE leading to permanent treatment discontinuation (Cohort B 50 mg BID (n = 9)): 0
Number of patients with any serious TEAE (Cohort B 50 mg BID (n = 9)): 0
TEAE Abdominal discomfort, n patients (Cohort B 50 mg BID (n = 9)): 1
TEAE Alanine aminotransferase increased, n patients (Cohort B 50 mg BID (n = 9)): 1
TEAE Anemia, n patients (Cohort B 50 mg BID (n = 9)): 0
TEAE Application site erosion, n patients (Cohort B 50 mg BID (n = 9)): 1
TEAE Arthralgia, n patients (Cohort B 50 mg BID (n = 9)): 0
TEAE Arthropod bite, n patients (Cohort B 50 mg BID (n = 9)): 0
TEAE Back pain, n patients (Cohort B 50 mg BID (n = 9)): 0
TEAE Blood creatine phosphokinase increased, n patients (Cohort B 50 mg BID (n = 9)): 1
TEAE Blood creatinine increased, n patients (Cohort B 50 mg BID (n = 9)): 0
TEAE Cough, n patients (Cohort B 50 mg BID (n = 9)): 0
TEAE Dermatitis contact, n patients (Cohort B 50 mg BID (n = 9)): 2
TEAE Dry eye, n patients (Cohort B 50 mg BID (n = 9)): 0
TEAE Fatigue, n patients (Cohort B 50 mg BID (n = 9)): 0
TEAE Fluid overload, n patients (Cohort B 50 mg BID (n = 9)): 1
TEAE Gingival pain, n patients (Cohort B 50 mg BID (n = 9)): 0
TEAE Hyperkalemia, n patients (Cohort B 50 mg BID (n = 9)): 1
TEAE Infusion site erythema, n patients (Cohort B 50 mg BID (n = 9)): 1
TEAE Nasopharyngitis, n patients (Cohort B 50 mg BID (n = 9)): 0
TEAE Rash, n patients (Cohort B 50 mg BID (n = 9)): 1
TEAE Renal failure, n patients (Cohort B 50 mg BID (n = 9)): 0
TEAE Renal impairment, n patients (Cohort B 50 mg BID (n = 9)): 0
TEAE Testicular pain, n patients (Cohort B 50 mg BID (n = 9)): 0
TEAE Troponin increased, n patients (Cohort B 50 mg BID (n = 9)): 0
TEAE Ventricular tachycardia, n patients (Cohort B 50 mg BID (n = 9)): 1
Number of patients with any AE leading to death (Cohort D 100 mg BID (n = 6)): 0
Number of patients with any TEAE (Cohort D 100 mg BID (n = 6)): 4
Number of patients with any TEAE leading to permanent treatment discontinuation (Cohort D 100 mg BID (n = 6)): 0
Number of patients with any serious TEAE (Cohort D 100 mg BID (n = 6)): 0
TEAE Abdominal discomfort, n patients (Cohort D 100 mg BID (n = 6)): 0
TEAE Alanine aminotransferase increased, n patients (Cohort D 100 mg BID (n = 6)): 0
TEAE Anemia, n patients (Cohort D 100 mg BID (n = 6)): 0
TEAE Application site erosion, n patients (Cohort D 100 mg BID (n = 6)): 0
TEAE Arthralgia, n patients (Cohort D 100 mg BID (n = 6)): 0
TEAE Arthropod bite, n patients (Cohort D 100 mg BID (n = 6)): 1
TEAE Back pain, n patients (Cohort D 100 mg BID (n = 6)): 0
TEAE Blood creatine phosphokinase increased, n patients (Cohort D 100 mg BID (n = 6)): 0
TEAE Blood creatinine increased, n patients (Cohort D 100 mg BID (n = 6)): 1
TEAE Cough, n patients (Cohort D 100 mg BID (n = 6)): 0
TEAE Dermatitis contact, n patients (Cohort D 100 mg BID (n = 6)): 0
TEAE Dry eye, n patients (Cohort D 100 mg BID (n = 6)): 0
TEAE Fatigue, n patients (Cohort D 100 mg BID (n = 6)): 0
TEAE Fluid overload, n patients (Cohort D 100 mg BID (n = 6)): 0
TEAE Gingival pain, n patients (Cohort D 100 mg BID (n = 6)): 1
TEAE Hyperkalemia, n patients (Cohort D 100 mg BID (n = 6)): 0
TEAE Infusion site erythema, n patients (Cohort D 100 mg BID (n = 6)): 0
TEAE Nasopharyngitis, n patients (Cohort D 100 mg BID (n = 6)): 0
TEAE Rash, n patients (Cohort D 100 mg BID (n = 6)): 0
TEAE Renal failure, n patients (Cohort D 100 mg BID (n = 6)): 0
TEAE Renal impairment, n patients (Cohort D 100 mg BID (n = 6)): 0
TEAE Testicular pain, n patients (Cohort D 100 mg BID (n = 6)): 0
TEAE Troponin increased, n patients (Cohort D 100 mg BID (n = 6)): 1
TEAE Ventricular tachycardia, n patients (Cohort D 100 mg BID (n = 6)): 1
QTc (MAD cohorts): No increase in QTc
patients with TEAEs (MAD cohorts, Compound I patients): 17 (57%) n (%)
patients with transient and asymptomatic increase in troponin I or hs-troponin T (MAD cohorts, all doses): 7 (23%) n (%)
Number of patients with any AE leading to death (Total Compound I (n = 30)): 0
Number of patients with any TEAE (Total Compound I (n = 30)): 17
Number of patients with any TEAE leading to permanent treatment discontinuation (Total Compound I (n = 30)): 0
Number of patients with any serious TEAE (Total Compound I (n = 30)): 1
TEAE Abdominal discomfort, n patients (Total Compound I (n = 30)): 1
TEAE Alanine aminotransferase increased, n patients (Total Compound I (n = 30)): 2
TEAE Anemia, n patients (Total Compound I (n = 30)): 1
TEAE Application site erosion, n patients (Total Compound I (n = 30)): 1
TEAE Arthralgia, n patients (Total Compound I (n = 30)): 0
TEAE Arthropod bite, n patients (Total Compound I (n = 30)): 1
TEAE Back pain, n patients (Total Compound I (n = 30)): 0
TEAE Blood creatine phosphokinase increased, n patients (Total Compound I (n = 30)): 1
TEAE Blood creatinine increased, n patients (Total Compound I (n = 30)): 1
TEAE Cough, n patients (Total Compound I (n = 30)): 1
TEAE Dermatitis contact, n patients (Total Compound I (n = 30)): 2
TEAE Dry eye, n patients (Total Compound I (n = 30)): 0
TEAE Fatigue, n patients (Total Compound I (n = 30)): 2
TEAE Fluid overload, n patients (Total Compound I (n = 30)): 1
TEAE Gingival pain, n patients (Total Compound I (n = 30)): 1
TEAE Hyperkalemia, n patients (Total Compound I (n = 30)): 1
TEAE Infusion site erythema, n patients (Total Compound I (n = 30)): 1
TEAE Nasopharyngitis, n patients (Total Compound I (n = 30)): 0
TEAE Rash, n patients (Total Compound I (n = 30)): 1
TEAE Renal failure, n patients (Total Compound I (n = 30)): 0
TEAE Renal impairment, n patients (Total Compound I (n = 30)): 0
TEAE Testicular pain, n patients (Total Compound I (n = 30)): 0
TEAE Troponin increased, n patients (Total Compound I (n = 30)): 2
TEAE Ventricular tachycardia, n patients (Total Compound I (n = 30)): 2
ventricular arrhythmias (Holter monitoring) (compared with placebo): no increase in ventricular arrhythmias
systolic blood pressure (higher concentration group): decrease
serious AE, one patient (not considered related to study treatment): hyperkalemia
